Laboratory results published in patent US9840528B2, “Thione-platinum(II) complexes and pharmaceutical compositions thereof” (priority 2015, dated 2017).
Entries after “also recorded” stand apart in the source; their conditions may differ.

Legend:
[1] = test system: A549 (human lung carcinoma) cell line; assay: MTT assay, in vitro cytotoxicity against A549; type: cell-based; conditions: A549 cells; for IC50: MTT, 24 h exposure, read-out: IC50 ± SEM A549; for in vitro cytotoxicity in comparison, A549: compared with cisplatin, carboplatin or each other
Description: (§1) Monim-ul-Mehboob, A. A. Isab, V. Dhuna, G. Bhatia, K. Dhuna and S. Altuwaijri, New J. Chem., 39 (2015) 377-incorporated herein by reference in its entirety]. The cells were seeded at 3×10^3 cells/well in 100 μL DMEM containing 10% Fetal Bovine Serum (FBS) in 96-well tissue culture plate and incubated for 72 h at 37° C., 5% CO2, in air and 90% relative humidity in CO2 incubator. […] The medium of wells was discarded and 100 μL DMEM containing MTT (0.5 mg/ml) was added to the wells and incubated in CO2 incubator at 37° C. in dark for 4 h. After incubation, a purple colored formazan produced in the cells appeared as dark crystals in the bottom of the wells. The culture medium was discarded from each well carefully to prevent disruption of monolayer and 100 μL of dimethyl sulfoxide (DMSO) was added in each well. The solution in the wells was thoroughly mixed to dissolve the formazan crystals which produce a purple solution. The absorbance of the 96 well-plates was taken at 570 nm with Labsystems Multiskan EX ELISA reader against a reagent blank. […] The MTT assay was performed in three independent experiments, each in triplicate. […] A549 (human lung carcinoma), MCF7 (human breast cancer), HCT15 (human colon adenocarcinoma), and HeLa (human cervical cancer) cell lines. […] This cytotoxic effect was obtained by the stipulated increase in the concentrations of the complexes and cisplatin against fixed number of human cancer cells. The IC50 concentration of the complexes and Cisplatin for different human cell lines was obtained from curves between the complexes concentration and percentage viability of the cells.

[2] = test system: MCF7 (human breast cancer) cell line; assay: MTT assay, in vitro cytotoxicity against MCF7; type: cell-based; conditions: MCF7 cells; for IC50: MTT, 24 h exposure, read-out: IC50 ± SEM MCF7; for in vitro cytotoxicity in comparison, MCF7: compared with cisplatin or each other
Description: as §1

[3] = test system: HCT15 (human colon adenocarcinoma) cell line; assay: MTT assay, in vitro cytotoxicity against HCT15; type: cell-based; conditions: HCT15 cells; for IC50: MTT, 24 h exposure, read-out: IC50 ± SEM HCT15
Description: as §1

[4] = test system: HeLa (human cervical cancer) cell line; assay: MTT assay, in vitro cytotoxicity against HeLa; type: cell-based; conditions: 24 h exposure, HeLa cells, read-out: IC50 ± SEM HeLa
Description: as §1

[5] = Stability in DMSO-d6 by time dependent 1H NMR; type: physicochemical; conditions: spectra after 1, 6, 12, 24, 48 and 72 h
Description: Complexes (1), (5) and (6) were dissolved in DMSO-d6 and their ^1H NMR spectra were measured. The extent of decomposition over time was determined by comparing the NMR spectra collected after 1, 6, 12, 24, 48 and 72 h.

[6] = Solubility in organic solvents; type: physicochemical

Row | Compound | IC50 [1] [µM] | IC50 [2] [µM] | IC50 [3] [µM] | IC50 [4] [µM] | IC80 [2] [µM] | in vitro cytotoxicity in comparison, A549 [1] | in vitro cytotoxicity in comparison, MCF7 [2] | change in chemical shifts and splitting patterns in time dependent 1H NMR spectra (extent of decomposition) [5] | solubility in CDCl3 ([6]; CDCl3) | solubility in DMSO and DMF ([6]; DMSO and DMF) | in vitro cytotoxic efficacy in comparison, HCT15 ([3]; compared with cisplatin and carboplatin)
1 | N.N.O=C([O-])C1(C(=O)[O-])CCC1.[Pt+2] [Carboplatin, carboplatin, reference compound] | 70.2 ± 1.7 | 53.2 ± 1.65 | 63.3 ± 1.58 | 55 ± 0.94 | – | – | – | – | – | – | –
2 | N.N.[Cl][Pt][Cl] [Cisplatin, cisplatin, reference compound] | 36.9 ± 1.88 | 21.3 ± 1.54 | 26.6 ± 1.07 | 18.1 ± 1.36 | 21.3 | – | – | – | – | – | –
3 | CN1CCNC1=S.CN1CCNC1=S.CN1CCNC1=S.CN1CCNC1=S.O.O.[Cl-].[Cl-].[Pt+2] [Complex (1), Tetrakis(1-methylimidazolidine-2-thione)platinum(II)] | 55.5 ± 1.08 | 74.6 ± 1.54 | 147 ± 1.77 | 142 ± 2.42 | – | in between cisplatin and carboplatin | very similar cytotoxic data and efficacy | No significant change | moderately soluble | completely soluble | –
4 | CCN1CCNC1=S.CCN1CCNC1=S.CCN1CCNC1=S.CCN1CCNC1=S.[Cl-].[Cl-].[Pt+2] [Complex (2), Tetrakis(1-ethylimidazolidine-2-thione)platinum(II)] | 37.1 ± 1.23 | 11.4 ± 1.34 | 41.6 ± 1.53 | 79.2 ± 1.95 | 11.4 | comparable to that of cisplatin; also recorded: almost two times better than that of carboplatin | two-fold better cytotoxic agent against the MCF7 cell line than cisplatin; also recorded: two-fold better as a cytotoxic agent than cisplatin | No significant change | – | – | lies in between cisplatin's and carboplatin's
5 | CCCN1CCNC1=S.CCCN1CCNC1=S.CCCN1CCNC1=S.CCCN1CCNC1=S.[Cl-].[Cl-].[Pt+2] [Complex (3), Tetrakis(1-propylimidazolidine-2-thione)platinum(II)] | 59.2 ± 2.6 | 62.9 ± 1.51 | 95.6 ± 2.14 | 133 ± 1.97 | – | in between cisplatin and carboplatin | – | – | – | – | –
6 | CC(C)N1CCNC1=S.CC(C)N1CCNC1=S.CC(C)N1CCNC1=S.CC(C)N1CCNC1=S.[Cl-].[Cl-].[Pt+2] [Complex (4), Tetrakis(1-isopropylimidazolidine-2-thione)platinum(II)] | 85.7 ± 1.35 | 78.1 ± 1.45 | 122 ± 1.75 | 95.44 ± 0.88 | – | almost equal cytotoxicity | very similar cytotoxic data and efficacy | – | – | – | –
7 | CCN1CCCNC1=S.CCN1CCCNC1=S.CCN1CCCNC1=S.CCN1CCCNC1=S.[Pt+2] [Complex (5), Tetrakis[1-ethyltetrahydropyrimidine-2(1H)-thione]platinum(II)] | 137 ± 1.77 | 95 ± 2.02 | 159 ± 2.9 | 166 ± 2.01 | – | – | – | – | – | – | –
8 | S=C1NCCCCN1.S=C1NCCCCN1.S=C1NCCCCN1.S=C1NCCCCN1.[Cl-].[Cl-].[Pt+2] [Complex (6), Tetrakis(1,3-diazepane-2-thione)platinum(II)] | 119 ± 2.25 | 121 ± 3.36 | 108 ± 2.03 | 92.5 ± 2.45 | – | – | – | – | – | – | –
9 | CC(C)N1CCNC1=S.CC(C)N1CCNC1=S.CC(C)N1CCNC1=S.CC(C)N1CCNC1=S.O=[N+]([O-])[O-].O=[N+]([O-])[O-].[Pt+2] [Complex (7), Tetrakis(1-isopropylimidazolidine-2-thione)platinum(II)] | 84.2 ± 1.09 | 74.4 ± 1.28 | 116 ± 2.09 | 99.9 ± 2.25 | – | almost equal cytotoxicity | very similar cytotoxic data and efficacy | – | – | – | –
